Where two headings read alike, the source gives them in different places. A value given as a limit tells only on which side of the number the result lay.

The target in the experiment is T1, KSP motor domain (Homo sapiens, UniProt P52732).
T1 sequence (P52732 18-359 limits assumed): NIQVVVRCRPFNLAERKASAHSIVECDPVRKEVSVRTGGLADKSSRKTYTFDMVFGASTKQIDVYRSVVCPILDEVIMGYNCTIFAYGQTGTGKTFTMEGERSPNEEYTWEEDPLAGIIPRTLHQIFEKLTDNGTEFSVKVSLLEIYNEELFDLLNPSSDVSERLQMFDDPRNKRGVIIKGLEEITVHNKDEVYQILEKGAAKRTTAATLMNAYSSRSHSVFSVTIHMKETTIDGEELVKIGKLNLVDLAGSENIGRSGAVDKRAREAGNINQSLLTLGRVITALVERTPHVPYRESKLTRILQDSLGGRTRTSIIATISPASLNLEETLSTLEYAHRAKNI
Description: biochemical. The note with it: for IC50: read-out: IC50.

[1] abbreviates: KSP inhibitory activity, end-point assay, class symbols (Table 1).

Regarding `CC(CO)NC(=O)c1cc2cc3c(nc2s1)CCC(C(C)(C)C)C3` (centres unmarked) [Example 76], under setting [1], the IC50 is 1000 to 10000 nM. The same measure, in the same setting: for `CC(C)(C)C1CCc2nc3sc(C(=O)Nc4ccccc4)cc3cc2C1` (centres unmarked) [Example 77] the value was more than 10000 nM; for `CC(C)(C)C1CCc2nc3sc(C(=O)NCc4ccccc4)cc3cc2C1` (centres unmarked) [Example 78], more than 10000 nM. Same read-out and setting: for `CCNC(=O)c1cc2cc3c(nc2s1)CCC(C(C)(C)C)C3` (centres unmarked) [Example 79] the value was 1000 to 10000 nM; for `CN(C)C(=O)c1cc2cc3c(nc2s1)CCC(C(C)(C)C)C3` (centres unmarked) [Example 80], more than 10000 nM. As to `CC(C)(C)C1CCc2nc3sc(C(=O)NCC(N)=O)cc3cc2C1` (centres unmarked) [Example 81], the “IC50 (nM)” value under setting [1] is on record as “A/B”. For the same compound, the IC50 (number printed in brackets under a borderline class (A/B, B/C) in Table 1 of b1103) was determined as 100 nM.

Turning to `CC(CO)NC(=O)c1cc2cc3c(nc2s1)CCC(C(C)(C)C)C3` (centres unmarked) [Example 82], the IC50 under setting [1] was in the range of 1000 to 10000 nM. Still for that read-out and setting: for `CC(CO)NC(=O)c1cc2cc3c(nc2s1)CCC(C(C)(C)C)C3` (centres unmarked) [Example 83] the value was 100 to 1000 nM. Same read-out and setting: for `COC(=O)[C@@H]1C[C@@H](O)CN1C(=O)c1cc2cc3c(nc2s1)CCC(C(C)(C)C)C3` (some centres unmarked) [Example 84] the value was 1000 to 10000 nM.

Take `CC(C)(C)C1CCc2nc3sc(C(=O)N[C@@H]4CCC[C@H]4O)cc3cc2C1` (some centres unmarked) [Example 85]: the IC50 under setting [1] lay in the range of 1000 to 10000 nM.

On to `CC(C)(C)C1CCc2nc3sc(C(=O)N[C@H]4CCC[C@@H]4O)cc3cc2C1` (some centres unmarked) [Example 86], for which, under setting [1], the concentration for half-maximal inhibition (IC50) was 1000 to 10000 nM. On to `CC(C)(C)C1CCc2nc3sc(C(=O)N4CCC[C@@H]4C(=O)O)cc3cc2C1` (some centres unmarked) [Example 88], for which the IC50 under setting [1] is more than 10000 nM. Same read-out and setting: with `COC(=O)[C@H]1CCCN1C(=O)c1cc2cc3c(nc2s1)CCC(C(C)(C)C)C3` (some centres unmarked) [Example 89] the figure was more than 10000 nM. Still for that read-out and setting: for `COC(=O)[C@H]1CCCCN1C(=O)c1cc2cc3c(nc2s1)CCC(C(C)(C)C)C3` (some centres unmarked) [Example 90] the value was more than 10000 nM; for `CC(C)(C)C1CCc2nc3sc(C(=O)N4CCCC[C@@H]4C(=O)O)cc3cc2C1` (some centres unmarked) [Example 91], more than 10000 nM. Still for that read-out and setting: with `COC(=O)[C@H]1C[C@@H](O)CN1C(=O)c1cc2cc3c(nc2s1)CCC(C(C)(C)C)C3` (some centres unmarked) [Example 92] the figure was more than 10000 nM. For `CC(C)(C)C1CCc2nc3sc(C(=O)N4C[C@H](O)C[C@@H]4C(=O)O)cc3cc2C1` (some centres unmarked) [Example 93], the IC50 under setting [1] is more than 10000 nM. On the same count and under the same terms, with `COC(=O)C(CO)NC(=O)c1cc2cc3c(nc2s1)CCC(C(C)(C)C)C3` (centres unmarked) [Example 94] the figure was 100 to 1000 nM. On the same count and under the same terms, with `CC(C)(C)C1CCc2nc3sc(C(=O)N4CCNCC4)cc3cc2C1` (centres unmarked) [Example 95] the figure was more than 10000 nM; with `CC(C)(C)C1CCc2nc3sc(C(=O)NC(CO)CO)cc3cc2C1` (centres unmarked) [Example 96], 100 to 1000 nM. Same read-out and setting: with `CN1CCN(C(=O)c2cc3cc4c(nc3s2)CCC(C(C)(C)C)C4)CC1` (centres unmarked) [Example 97] the figure was more than 10000 nM; with `CC(C)(C)C1CCc2nc3sc(C(=O)NC(CO)(CO)CO)cc3cc2C1` (centres unmarked) [Example 98], 1000 to 10000 nM. In the case of `CC(C)(C)C1CCc2nc3sc(C(=O)NCCN)cc3cc2C1` (centres unmarked) [Example 99], the IC50 is less than 100 nM under setting [1] and 22 nM (exact IC50 values, end-point assay (Table 2)). For the compound `CC(C)(C)C1CCc2nc3sc(C(=O)NC(CO)C(N)=O)cc3cc2C1` (centres unmarked) [Example 100], the IC50 under setting [1] was in the range of 100 to 1000 nM. Regarding `CC(C)(C)C1CCc2nc3sc(C(=O)NCCCN)cc3cc2C1` (centres unmarked) [Example 101], the IC50 under setting [1] was in the range of 100 to 1000 nM. For `CC(C)(C)C1CCc2nc3sc(C(=O)NCCCO)cc3cc2C1` (centres unmarked) [Example 102], the IC50 under setting [1] was in the range of 100 to 1000 nM. Still for that read-out and setting: with `CC(O)CNC(=O)c1cc2cc3c(nc2s1)CCC(C(C)(C)C)C3` (centres unmarked) [Example 103] the figure was 1000 to 10000 nM; with `CC(C)(C)C1CCc2nc3sc(C(=O)NO)cc3cc2C1` (centres unmarked) [Example 104, 6-tert-Butyl-5,6,7,8-tetrahydrothieno[2,3-b]quinoline-2-carboxylic acid hydroxyamide], less than 100 nM. Same read-out and setting: with `CC(C)(C)C1CCc2nc3sccc3cc2C1` (centres unmarked) [Example 105, 6-tert-Butyl-5,6,7,8-tetrahydrothieno[2,3-b]quinoline] the figure was 1000 to 10000 nM; with `CC(C)(C)C1CCc2nc3sc(C#N)c(Cl)c3cc2C1` (centres unmarked) [Example 111, 6-tert-Butyl-3-chloro-5,6,7,8-tetrahydrothieno[2,3-b]quinoline-2-carbonitrile], more than 10000 nM.

In the case of `CC(C)(C)C1CCc2nc3sc(C#N)c(Br)c3cc2C1` (centres unmarked) [Example 112, 6-tert-Butyl-3-bromo-5,6,7,8-tetrahydrothieno[2,3-b]quinoline-2-carbonitrile], under setting [1], the IC50 was more than 10000 nM. Still for that read-out and setting: with `CCC(C)(C)C1CCc2nc3sc(C#N)cc3c(Cl)c2C1` (centres unmarked) [Example 113] the figure was 1000 to 10000 nM; with `CCC(C)(C)C1C=Cc2nc3sc(C(N)=O)cc3cc2C1` (centres unmarked) [Example 114], less than 100 nM; with `CCC(C)(C)C1CCc2nc3sc(C(N)=O)cc3c(Cl)c2C1` (centres unmarked) [Example 115], 1000 to 10000 nM. Same read-out and setting: for `CCC(C)(C)C1CCc2nc3sc(C(N)=O)cc3c(O)c2C1` (centres unmarked) [Example 116] the value was more than 10000 nM.

As for `CC(C)(C)C1CCc2nc3sc(C(N)=O)c(N)c3cc2C1` (centres unmarked) [Example 118, 3-Amino-6-tert-butyl-5,6,7,8-tetrahydrothieno[2,3-b]quinoline-2-carboxylic acid amide], the IC50 under setting [1] was in the range of 1000 to 10000 nM. On the same count and under the same terms, with `CC(C)(C)C1CCc2nc3sc4c(=O)[nH]nnc4c3cc2C1` (centres unmarked) [Example 119, 7-tert-Butyl-6,7,8,9-tetrahydro2H-11-thia-2,3,4,10-tetraazabenzo[b]fluoren-1-one] the figure was 1000 to 10000 nM; with `CC(C)(C)C1CCc2nc3sc(S(C)(=O)=O)c(N)c3cc2C1` (centres unmarked) [Example 120, 6-tert-Butyl-2-methanesulfonyl-5,6,7,8-tetrahydrothieno[2,3-b]quinolin-3-ylamine], 100 to 1000 nM.

As for `CC(C)(C)C1CCc2nc3sc(S(C)(=O)=O)c(O)c3cc2C1` (centres unmarked) [Example 121, 6-tert-Butyl-2-methanesulfonyl-5,6,7,8-tetrahydrothieno[2,3-b]quinolin-3-ol], the IC50 under setting [1] is more than 10000 nM.

Turning to `CC(C)(C)C1CCc2nc3sc(S(C)(=O)=O)cc3cc2C1` (centres unmarked) [Example 122, 6-tert-Butyl-2-methanesulfonyl-5,6,7,8-tetrahydrothieno[2,3-b]quinoline], under setting [1], the concentration for half-maximal inhibition (IC50) lay in the range of 1000 to 10000 nM. The same measure, in the same setting: for `CC(C)(C)C1CCc2nc3sc(S(N)(=O)=O)cc3cc2C1` (centres unmarked) [Example 123, 6-tert-Butyl-5,6,7,8-tetrahydrothieno[2,3-b]quinoline-2-sulfonic acid amide] the value was 100 to 1000 nM.

As for `CC(=O)Nc1cc2cc3c(nc2s1)CCC(C(C)(C)C)C3` (centres unmarked) [Example 124, N-(6-tert-Butyl-5,6,7,8-tetrahydrothieno[2,3-b]quinolin-2-yl)acetamide], the IC50 under setting [1] is 1000 to 10000 nM. In the case of `CC(C)(C)C1CCc2nc3sc(NC(N)=O)cc3cc2C1` (centres unmarked) [Example 125, (6-tert-Butyl-5,6,7,8-tetrahydrothieno[2,3-b]quinolin-2-yl)urea], the “IC50 (nM)” value under setting [1] is reported as “B/C”. On to `CC(C)(C)C1CCc2nc3c(cc2C1)c(N)c(C#N)[s+]3[O-]` (centres unmarked) [Example 126, 3-Amino-6-tert-butyl-1-oxo-5,6,7,8-tetrahydro-1H-1λ^4-thieno[2,3-b]quinoline-2-carbonitrile], for which, under setting [1], the IC50 lay in the range of 1000 to 10000 nM. Still for that read-out and setting: with `CC(C)(C)C1CCc2nc3c(cc2C1)C(N)=C(C#N)S3(=O)=O` (centres unmarked) [Example 127, 3-Amino-6-tert-butyl-1,1-dioxo-5,6,7,8-tetrahydro-1H-1λ^6-thieno[2,3-b]quinoline-2-carbonitrile] the figure was 1000 to 10000 nM.

The IC50 is the midpoint of a concentration-inhibition curve.

For the origin of these results see US20060247320A1, “Compounds for inhibiting KSP kinesin activity” (priority 2005, published 2006).
